The supplement of paper PMC11451515

Assays:
NOMO1 = experiment: AUC of viability dose-response curve (% viability x log10 dose units); higher = less sensitive; details: 48 h
Summary of the method: (§1)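 Leukemia cells adapted to each medium were seeded in 1536-well plates (500 or 1000 cells/well). They were dosed with library compounds in DMSO at 11 threefold doses, 47 μM to 0.79 nM, for 48 h at 37°C. CellTiter-Glo One luminescence was normalised per plate to DMSO and cell-free wells. Area under the curve was integrated by trapezoidal rule over log10 doses on a four-parameter log-logistic fit; curves exceeding full viability were scaled and curves failing quality control removed.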

SEM cells [1] = experiment: as above; details: 48 h
Summary of the method: as §1

P12-Ichikawa [2] = experiment: as above; details: 48 h
Summary of the method: as §1

SEM cells [3] = experiment: cell viability relative to DMSO control; higher = less cytotoxic; details: 48 h
Summary of the method: (§2)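 Viability is a per-plate percentage relative to DMSO wells, with cell-free wells as background. CellTiter-Glo One luminescence was read after 48 h at 37°C on 1536-well plates (5 μl) of NOMO1 or SEM (500 cells/well) or P12-Ichikawa (1000 cells/well) leukemia cells. The cells had been adapted for at least four passages in each medium and pin-dosed with library compounds in DMSO from 47 μM to 0.79 nM in 11 threefold steps.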

P12-Ichikawa [4] = experiment: as above; details: HPLM + 10% dialyzed FBS, 48 h
Summary of the method: as §2

[5] = RPMI 5 mM glucose + 10% dialyzed FBS
[6] = RPMI 5 mM glucose + 10% FBS, 0.000781 µM
[7] = RPMI 5 mM glucose + 10% FBS, 0.00234 µM
[8] = RPMI 5 mM glucose + 10% FBS, 0.00702 µM
[9] = RPMI 5 mM glucose + 10% FBS, 0.0211 µM
[10] = RPMI 5 mM glucose + 10% FBS, 0.0632 µM
[11] = RPMI 5 mM glucose + 10% FBS, 0.19 µM
[12] = RPMI 5 mM glucose + 10% FBS, 0.569 µM
[13] = RPMI 5 mM glucose + 10% FBS, 1.71 µM
[14] = RPMI 5 mM glucose + 10% FBS, 5.12 µM
[15] = RPMI 5 mM glucose + 10% FBS, 15.4 µM
[16] = RPMI 5 mM glucose + 10% FBS, 46.1 µM

In the case of O=C(NCc1ccccc1)[C@H](Cc1ccccc1)NC(=O)[C@H]1O[C@@H]1C(=O)NCCc1ccc(O)cc1, the “AUC of viability dose-response curve” value (NOMO1; HPLM + 10% dialyzed FBS) is reported as 431, the “AUC of viability dose-response curve” value (NOMO1; RPMI 5 mM glucose + 10% FBS) is reported as 459 and the “AUC of viability dose-response curve” value (NOMO1; [5]) is reported as 425. The “AUC of viability dose-response curve” value (SEM cells [1]; HPLM + 10% dialyzed FBS) was 464, the “AUC of viability dose-response curve” value (SEM cells [1]; RPMI 5 mM glucose + 10% FBS) was 463 and the “AUC of viability dose-response curve” value (SEM cells [1]; [5]) was 453. The “AUC of viability dose-response curve” value (P12-Ichikawa [2]; HPLM + 10% dialyzed FBS) was 468, the “AUC of viability dose-response curve” value (P12-Ichikawa [2]; RPMI 5 mM glucose + 10% FBS) was 461 and the “AUC of viability dose-response curve” value (P12-Ichikawa [2]; [5]) was 463.

For Cl.O[C@@H](CNC[C@H](O)[C@H]1CCc2cc(F)ccc2O1)[C@@H]1CCc2cc(F)ccc2O1, the “AUC of viability dose-response curve” value (NOMO1; HPLM + 10% dialyzed FBS) was 439, the “AUC of viability dose-response curve” value (NOMO1; RPMI 5 mM glucose + 10% FBS) was 446 and the “AUC of viability dose-response curve” value (NOMO1; [5]) was 415. The “AUC of viability dose-response curve” value (SEM cells [1]; HPLM + 10% dialyzed FBS) was 450, the “AUC of viability dose-response curve” value (SEM cells [1]; RPMI 5 mM glucose + 10% FBS) was 444 and the “AUC of viability dose-response curve” value (SEM cells [1]; [5]) was 455. The “AUC of viability dose-response curve” value (P12-Ichikawa [2]; HPLM + 10% dialyzed FBS) was 465, the “AUC of viability dose-response curve” value (P12-Ichikawa [2]; RPMI 5 mM glucose + 10% FBS) was 441 and the “AUC of viability dose-response curve” value (P12-Ichikawa [2]; [5]) was 448.

For CN(C)C(=O)COC(=O)Cc1ccc(OC(=O)c2ccc(NC(=N)N)cc2)cc1, the cell viability (SEM cells [3]; HPLM + 10% dialyzed FBS, 0.000781 µM) was 107%, the cell viability (SEM cells [3]; HPLM + 10% dialyzed FBS, 0.00234 µM) was 113% and the cell viability (SEM cells [3]; HPLM + 10% dialyzed FBS, 0.00702 µM) was 122%. The cell viability (SEM cells [3]; HPLM + 10% dialyzed FBS, 0.0211 µM) was 112%, the cell viability (SEM cells [3]; HPLM + 10% dialyzed FBS, 0.0632 µM) was 125% and the cell viability (SEM cells [3]; HPLM + 10% dialyzed FBS, 0.19 µM) was 126%. For the same molecule, the cell viability (SEM cells [3]; HPLM + 10% dialyzed FBS, 0.569 µM) was 119%, the cell viability (SEM cells [3]; HPLM + 10% dialyzed FBS, 1.71 µM) was 119% and the cell viability (SEM cells [3]; HPLM + 10% dialyzed FBS, 5.12 µM) was 112%. It also gave a cell viability (SEM cells [3]; HPLM + 10% dialyzed FBS, 15.4 µM) of 118%, a cell viability (SEM cells [3]; HPLM + 10% dialyzed FBS, 46.1 µM) of 61.2% and a cell viability (SEM cells [3]; [6]) of 102%. It also gave a cell viability (SEM cells [3]; [7]) of 110%, a cell viability (SEM cells [3]; [8]) of 126% and a cell viability (SEM cells [3]; [9]) of 117%. The cell viability (SEM cells [3]; [10]) was 130%, the cell viability (SEM cells [3]; [11]) was 126% and the cell viability (SEM cells [3]; [12]) was 139%. The cell viability (SEM cells [3]; [13]) was 130%, the cell viability (SEM cells [3]; [14]) was 114% and the cell viability (SEM cells [3]; [15]) was 107%. The cell viability (SEM cells [3]; [16]) was 61.7%, the cell viability (P12-Ichikawa [4]; 0.00234 µM) was 122% and the cell viability (P12-Ichikawa [4]; 0.00702 µM) was 126%. The cell viability (P12-Ichikawa [4]; 0.0211 µM) was 134%, the cell viability (P12-Ichikawa [4]; 0.0632 µM) was 129% and the cell viability (P12-Ichikawa [4]; 0.19 µM) was 135%. It also gave a cell viability (P12-Ichikawa [4]; 0.569 µM) of 134%, a cell viability (P12-Ichikawa [4]; 1.71 µM) of 126% and a cell viability (P12-Ichikawa [4]; 5.12 µM) of 107%. The cell viability (P12-Ichikawa [4]; 15.4 µM) was 98.4%, the cell viability (P12-Ichikawa [4]; 46.1 µM) was 70.5% and the “AUC of viability dose-response curve” value (NOMO1; HPLM + 10% dialyzed FBS) was 426. The “AUC of viability dose-response curve” value (NOMO1; RPMI 5 mM glucose + 10% FBS) was 469, the “AUC of viability dose-response curve” value (NOMO1; [5]) was 465 and the “AUC of viability dose-response curve” value (SEM cells [1]; HPLM + 10% dialyzed FBS) was 465. For the same molecule, the “AUC of viability dose-response curve” value (SEM cells [1]; RPMI 5 mM glucose + 10% FBS) was 458, the “AUC of viability dose-response curve” value (SEM cells [1]; [5]) was 469 and the “AUC of viability dose-response curve” value (P12-Ichikawa [2]; HPLM + 10% dialyzed FBS) was 446. For the same molecule, the “AUC of viability dose-response curve” value (P12-Ichikawa [2]; RPMI 5 mM glucose + 10% FBS) was 462 and the “AUC of viability dose-response curve” value (P12-Ichikawa [2]; [5]) was 437.

Cn1c(CCCC(=O)O)nc2cc(N(CCCl)CCCl)ccc21 was tested, and the “AUC of viability dose-response curve” value (NOMO1; HPLM + 10% dialyzed FBS) was 452, the “AUC of viability dose-response curve” value (NOMO1; RPMI 5 mM glucose + 10% FBS) was 441 and the “AUC of viability dose-response curve” value (NOMO1; [5]) was 453. For the same molecule, the “AUC of viability dose-response curve” value (SEM cells [1]; HPLM + 10% dialyzed FBS) was 456, the “AUC of viability dose-response curve” value (SEM cells [1]; RPMI 5 mM glucose + 10% FBS) was 414 and the “AUC of viability dose-response curve” value (SEM cells [1]; [5]) was 447. For the same molecule, the “AUC of viability dose-response curve” value (P12-Ichikawa [2]; HPLM + 10% dialyzed FBS) was 438, the “AUC of viability dose-response curve” value (P12-Ichikawa [2]; RPMI 5 mM glucose + 10% FBS) was 457 and the “AUC of viability dose-response curve” value (P12-Ichikawa [2]; [5]) was 451.

CCC(c1ccc(O)cc1)C(CC)c1ccc(O)cc1 (centres undefined) was tested, and the “AUC of viability dose-response curve” value (NOMO1; HPLM + 10% dialyzed FBS) was 428, the “AUC of viability dose-response curve” value (NOMO1; RPMI 5 mM glucose + 10% FBS) was 448 and the “AUC of viability dose-response curve” value (NOMO1; [5]) was 463. For the same molecule, the “AUC of viability dose-response curve” value (SEM cells [1]; HPLM + 10% dialyzed FBS) was 459, the “AUC of viability dose-response curve” value (SEM cells [1]; RPMI 5 mM glucose + 10% FBS) was 457 and the “AUC of viability dose-response curve” value (SEM cells [1]; [5]) was 466. The “AUC of viability dose-response curve” value (P12-Ichikawa [2]; HPLM + 10% dialyzed FBS) was 452, the “AUC of viability dose-response curve” value (P12-Ichikawa [2]; RPMI 5 mM glucose + 10% FBS) was 464 and the “AUC of viability dose-response curve” value (P12-Ichikawa [2]; [5]) was 466.

Nc1cccc(-c2cc3c(Oc4cccc(O)c4)ncnc3[nH]2)c1 showed a cell viability (SEM cells [3]; [6]) of 70.7%, a cell viability (SEM cells [3]; [7]) of 122% and a cell viability (SEM cells [3]; [8]) of 132%. The cell viability (SEM cells [3]; [9]) was 143%, the cell viability (SEM cells [3]; [10]) was 145% and the cell viability (SEM cells [3]; [11]) was 123%. For the same molecule, the cell viability (SEM cells [3]; [12]) was 132%, the cell viability (SEM cells [3]; [13]) was 121% and the cell viability (SEM cells [3]; [14]) was 88.8%. The cell viability (SEM cells [3]; [15]) was 62.3%, the cell viability (SEM cells [3]; [16]) was 9.75% and the cell viability (SEM cells [3]; RPMI 5 mM glucose + 10% dialyzed FBS, 0.000781 µM) was 69.1%. It also gave a cell viability (SEM cells [3]; RPMI 5 mM glucose + 10% dialyzed FBS, 0.00234 µM) of 123%, a cell viability (SEM cells [3]; RPMI 5 mM glucose + 10% dialyzed FBS, 0.00702 µM) of 132% and a cell viability (SEM cells [3]; RPMI 5 mM glucose + 10% dialyzed FBS, 0.0211 µM) of 125%. For the same molecule, the cell viability (SEM cells [3]; RPMI 5 mM glucose + 10% dialyzed FBS, 0.0632 µM) was 131%, the cell viability (SEM cells [3]; RPMI 5 mM glucose + 10% dialyzed FBS, 0.19 µM) was 116% and the cell viability (SEM cells [3]; RPMI 5 mM glucose + 10% dialyzed FBS, 0.569 µM) was 133%. It also gave a cell viability (SEM cells [3]; RPMI 5 mM glucose + 10% dialyzed FBS, 1.71 µM) of 121%, a cell viability (SEM cells [3]; RPMI 5 mM glucose + 10% dialyzed FBS, 5.12 µM) of 80.4% and a cell viability (SEM cells [3]; RPMI 5 mM glucose + 10% dialyzed FBS, 15.4 µM) of 56%. For the same molecule, the cell viability (SEM cells [3]; RPMI 5 mM glucose + 10% dialyzed FBS, 46.1 µM) was 13.4%, the cell viability (P12-Ichikawa [4]; 0.000781 µM) was 124% and the cell viability (P12-Ichikawa [4]; 0.00234 µM) was 121%. For the same molecule, the cell viability (P12-Ichikawa [4]; 0.00702 µM) was 123%, the cell viability (P12-Ichikawa [4]; 0.0211 µM) was 114% and the cell viability (P12-Ichikawa [4]; 0.0632 µM) was 122%. It also gave a cell viability (P12-Ichikawa [4]; 0.19 µM) of 114%, a cell viability (P12-Ichikawa [4]; 0.569 µM) of 117% and a cell viability (P12-Ichikawa [4]; 1.71 µM) of 106%. The cell viability (P12-Ichikawa [4]; 5.12 µM) was 105%, the cell viability (P12-Ichikawa [4]; 15.4 µM) was 60.5% and the cell viability (P12-Ichikawa [4]; 46.1 µM) was 15.1%. The “AUC of viability dose-response curve” value (NOMO1; HPLM + 10% dialyzed FBS) was 445, the “AUC of viability dose-response curve” value (NOMO1; RPMI 5 mM glucose + 10% FBS) was 463 and the “AUC of viability dose-response curve” value (NOMO1; [5]) was 460. For the same molecule, the “AUC of viability dose-response curve” value (SEM cells [1]; HPLM + 10% dialyzed FBS) was 414, the “AUC of viability dose-response curve” value (SEM cells [1]; RPMI 5 mM glucose + 10% FBS) was 415 and the “AUC of viability dose-response curve” value (SEM cells [1]; [5]) was 414. For the same molecule, the “AUC of viability dose-response curve” value (P12-Ichikawa [2]; HPLM + 10% dialyzed FBS) was 423, the “AUC of viability dose-response curve” value (P12-Ichikawa [2]; RPMI 5 mM glucose + 10% FBS) was 431 and the “AUC of viability dose-response curve” value (P12-Ichikawa [2]; [5]) was 436.
